Several values for one entry are separate records, joined by “and”; a condition that tells them apart may be missing. Identical values can stand only once. Entries after “also recorded” stand apart in the source; their conditions may differ.
Tested on: female subjects with normal hepatic function, mild, moderate or severe hepatic impairment
Experiment: Safety and tolerability (TEAEs, clinical laboratory, vital signs, physical examination) after a single oral dose of 20 mg E4 monohydrate in the hepatic impairment study
Assay type: in vivo, human
Method: This was a Phase 1, multi-centre, open-label, PK, and safety study of a single oral dose of 20 mg E4 monohydrate in female subjects with normal hepatic function (Group 1), mild hepatic impairment (Group 2), moderate hepatic impairment (Group 3), and severe hepatic impairment (Group 4), as defined using the Child-Pugh classification at Screening.
Safety and tolerability assessments consisted of treatment-emergent AEs (TEAEs), clinical laboratory, vital signs, physical examination, and gynecological examination. Assessments were performed in accordance with Table 2 and Table 3 in Section 2.5.1.
AEs/TEAEs were recorded after signing of the ICF until completion of the follow up visit. Any clinically significant observations in results of clinical laboratory, vital signs, or physical examinations were recorded as AEs.
A TEAE is defined as any event not present prior to administration of the study drug or any event already present that worsens in either severity or frequency following exposure to the study drug.
The below listed tests were to be performed by the local laboratories at time points indicated in the Schedule of Assessments (Table 2).
Systolic and diastolic blood pressure and pulse were recorded after the subject had been resting for at least 5 minutes in the supine position at time points indicated in the Schedule of Assessments (Table 2). These assessments were made using an automated device. Body temperature and respiratory rate were measured subsequently.
A complete physical examination consisting of a review of all body systems was performed at time points indicated in the Schedule of Assessments (Table 2). A symptom-directed physical examination could be conducted at any time per Investigator's discretion.
2.6.2.2 Evaluation of Safety and Tolerability Safety and tolerability were assessed through TEAEs, clinical laboratory, vital signs, and physical examination findings, and any other parameter that was relevant for safety assessment.
A listing of all individual AEs is provided. Summary tables of TEAEs are presented by system organ class (SOC) based on the MedDRA terminology list (preferred terms): a table containing the number of subjects experiencing AEs by hepatic function, a table containing the number of subjects experiencing SAEs by hepatic function (if applicable), a table by hepatic function and relationship, and a table by hepatic function and severity.

[1] = Mild (N = 8), single oral dose 20 mg E4
[2] = Moderate (N = 8), single oral dose 20 mg E4
[3] = Normal (N = 8), single oral dose 20 mg E4
[4] = Severe (N = 8), single oral dose 20 mg E4
[5] = Total (N = 32), single oral dose 20 mg E4
[6] = all 32 subjects, single oral dose 20 mg E4
[7] = moderate hepatic impairment group

C[C@]12CC[C@@H]3c4ccc(O)cc4CC[C@H]3[C@@H]1[C@@H](O)[C@@H](O)[C@@H]2O [E4, 1,3,5 (10)-estratrien-3,15alpha, 16alpha, 17beta-tetrol]
Subjects by maximum relationship to study drug: Not related [1]: 2 (25.0) n (%)
Subjects by maximum relationship to study drug: Related [1]: 0 n (%)
Subjects with TEAEs by maximum severity: Mild [1]: 2 (25.0) n (%)
Subjects with TEAEs by maximum severity: Moderate [1]: 0 n (%)
Subjects with at least one AE [1]: 2 (25.0) n (%)
Subjects with at least one SAE [1]: 0 n (%)
Subjects with at least one TEAE [1]: 2 n (%) and 2 (25.0) n (%)
Subjects with at least one TEAE leading to study drug discontinuation [1]: 0 n (%)
Subjects by maximum relationship to study drug: Not related [2]: 3 (37.5) n (%)
Subjects by maximum relationship to study drug: Related [2]: 1 (12.5) n (%)
Subjects with TEAEs by maximum severity: Mild [2]: 3 (37.5) n (%)
Subjects with TEAEs by maximum severity: Moderate [2]: 1 (12.5) n (%)
Subjects with at least one AE [2]: 4 (50.0) n (%)
Subjects with at least one SAE [2]: 0 n (%)
Subjects with at least one TEAE [2]: 4 n (%) and 4 (50.0) n (%)
Subjects with at least one TEAE leading to study drug discontinuation [2]: 0 n (%)
Subjects by maximum relationship to study drug: Not related [3]: 2 (25.0) n (%)
Subjects by maximum relationship to study drug: Related [3]: 0 n (%)
Subjects with TEAEs by maximum severity: Mild [3]: 0 n (%)
Subjects with TEAEs by maximum severity: Moderate [3]: 2 (25.0) n (%)
Subjects with at least one AE [3]: 2 (25.0) n (%)
Subjects with at least one SAE [3]: 0 n (%)
Subjects with at least one TEAE [3]: 2 n (%) and 2 (25.0) n (%)
Subjects with at least one TEAE leading to study drug discontinuation [3]: 0 n (%)
Subjects by maximum relationship to study drug: Not related [4]: 1 (12.5) n (%)
Subjects by maximum relationship to study drug: Related [4]: 0 n (%)
Subjects with TEAEs by maximum severity: Mild [4]: 1 (12.5) n (%)
Subjects with TEAEs by maximum severity: Moderate [4]: 0 n (%)
Subjects with at least one AE [4]: 1 (12.5) n (%)
Subjects with at least one SAE [4]: 0 n (%)
Subjects with at least one TEAE [4]: 1 n (%) and 1 (12.5) n (%)
Subjects with at least one TEAE leading to study drug discontinuation [4]: 0 n (%)
Subjects by maximum relationship to study drug: Related [5]: 1 n (%) and 1 (3.1) n (%)
Subjects with TEAEs by maximum severity: Moderate [5]: 3 n (%) and 3 (9.4) n (%)
Subjects with at least one AE [5]: 9 (28.1) n (%)
Subjects with at least one SAE [5]: 0 n (%)
Subjects with at least one TEAE [5]: 9 n (%) and 9 (28.1) n (%)
Subjects with at least one TEAE leading to study drug discontinuation [5]: 0 n (%)
subjects reporting TEAE back pain [6]: 2 subjects
subjects reporting TEAE diarrhea [6]: 3 subjects
subjects reporting TEAE headache [6]: 2 subjects
subjects reporting TEAE hypertension [6]: 2 subjects
laboratory values, changes and shifts from baseline (hematology, clinical chemistry) (all hepatic function groups): did not show deviations or trends which would raise safety concerns
number of TEAEs considered of mild intensity (all subjects): Eleven
number of TEAEs considered of moderate intensity (all subjects): 4 TEAEs
blood pressure, pulse rate, respiratory rate, body temperature (changes from baseline): showed no trends or clinically relevant changes
number of TEAEs considered related to the study drug (diarrhea, mild intensity, 1 subject in the moderate group): 1 TEAE
subjects with TEAE hypertension (mild hepatic impairment group): 2 subjects
subjects reporting TEAE diarrhea [7]: 2 subjects
subjects reporting TEAE headache [7]: 2 subjects
subjects reporting TEAE back pain (normal hepatic function group): 1 subjects
subjects reporting TEAE diarrhea (normal hepatic function group): 1 subjects
vital signs, laboratory values, physical examination (overall conclusion): unremarkable
subjects reporting TEAE back pain (severe hepatic impairment group): 1 subjects
deaths, SAEs, other significant AEs (whole study): no subjects with SAEs; also recorded: No deaths, SAEs, or other significant AEs occurred
